In patent US11028087B2, “2,6-disubstituted-9-cyclopentyl-9H-purines, use thereof as medicaments, and pharmaceutical compositions” (UNIVERZITA PALACKEHO V OLOMOUCI, priority 2017, dated 2021):

How the values were obtained:
Test in all cases: Calcein AM cytotoxicity assay
Assay type in all cases: cell-based
HL60 = details: Homo sapiens, HL-60, 72 h, three days
[1] = tested on: Kasumi-1 (acute myeloid leukemia, KIT mutation Asn822Lys); details: Homo sapiens, 72 h; Kasumi-1; Calcein AM, three days; read-out: EC50 values (μM) Kasumi-1
Text: (§1) Cytotoxicity of the compounds is the major property determining their anticancer effect in vivo. One of the parameters used, as the basis for cytotoxicity assays, is the integrity of cytoplasmic membrane of viable cells. For example, a microtiter assay, which uses acetomethoxy derivate of calcein (Calcein AM), is widely used for evaluation of cell proliferation and cytotoxicity. This assay is used in drug screening programs and in chemosensitivity testing. Intracellular esterases of viable cells convert calcein AM to green-fluorescent calcein of which signal corresponds to the number of viable cells in the culture.
(§2) We have been using the following cell lines: MV4-11 (acute myeloid leukemia, FLT3-ITD positive), MOLM-13 (acute myeloid leukemia, FLT3-ITD positive), THP-1 (acute myeloid leukemia, wt FLT3), U937 (monocytic leukemia, wt FLT3), EOL-1 (eosinophilic leukaemia, carrying the fusion FIP1L1-PDGFRA), H1703 (non-small cell lung carcinoma, PDGFRA amplification). They were maintained in RPMI-1640 supplemented with 10% fetal bovine serum, penicillin (100 U/ml) and streptomycin (100 μg/ml). Kasumi-1 (acute myeloid leukemia, KIT mutation Asn822Lys) cells were cultivated in RPMI-1640 supplemented with 15% fetal bovine serum, penicillin (100 U/ml) and streptomycin (100 μg/ml). K562 and MCF-7 cell lines were maintained in DMEM supplemented with 10% fetal bovine serum, penicilin (100 U/ml) and streptomycin (100 μg/ml). All cell lines were cultivated at 37° C. in 5% CO2. For cytotoxicity assays, cells were seeded in appropriate densities into 96 well plates and the next day tested compounds were added at various concentrations in triplicates. Three days after drug addition, Calcein AM solution (final concentration 1 μg/ml; Thermo Scientific, USA) was added into each well and incubated for 1 h. After this incubation period, fluorescence of the live cells was measured at 485 nm/538 nm (ex/em) with a Fluoroskan Ascent microplate reader (Labsystems).

[2] = tested on: U937 (monocytic leukemia, wt FLT3); details: Homo sapiens, U-937, 72 h; U937; Calcein AM, three days; read-out: EC50 values (μM) U937
Text: as §1
as §2, with “They were maintained in RPMI-1640 supplemented with 10% fetal bovine serum, penicillin (100 U/ml) and streptomycin (100 μg/ml). Kasumi-1 (acute myeloid leukemia, KIT mutation Asn822Lys) cells were cultivated in RPMI-1640 supplemented with 15% fetal bovine serum, penicillin (100 U/ml) and streptomycin (100 μg/ml).” left out, “h.” for “h. After this incubation period, fluorescence of the live cells was measured at 485 nm/538 nm (ex/em) with a Fluoroskan Ascent microplate reader (Labsystems).”

MCF-7 = details: Homo sapiens, MCF7, 72 h; MCF-7; Calcein AM, three days; read-out: EC50 values (μM) MCF-7
Text: as §1
as §2, with “They were maintained in RPMI-1640 supplemented with 10% fetal bovine serum, penicillin (100 U/ml) and streptomycin (100 μg/ml). Kasumi-1 (acute myeloid leukemia, KIT mutation Asn822Lys) cells were cultivated in RPMI-1640 supplemented with 15% fetal bovine serum, penicillin (100 U/ml) and streptomycin (100 μg/ml).” left out, “h.” for “h. After this incubation period, fluorescence of the live cells was measured at 485 nm/538 nm (ex/em) with a Fluoroskan Ascent microplate reader (Labsystems).”

[3] = tested on: EOL-1 (eosinophilic leukaemia, carrying the fusion FIP1L1-PDGFRA); details: Homo sapiens, EOL1, 72 h; EOL-1; Calcein AM, three days; read-out: EC50 values (μM) EOL-1
Text: as §1
as §2, with “They were maintained in RPMI-1640 supplemented with 10% fetal bovine serum, penicillin (100 U/ml) and streptomycin (100 μg/ml). Kasumi-1 (acute myeloid leukemia, KIT mutation Asn822Lys) cells were cultivated in RPMI-1640 supplemented with 15% fetal bovine serum, penicillin (100 U/ml) and streptomycin (100 μg/ml).” left out, “h.” for “h. After this incubation period, fluorescence of the live cells was measured at 485 nm/538 nm (ex/em) with a Fluoroskan Ascent microplate reader (Labsystems).”

[4] = tested on: MV4-11 (acute myeloid leukemia, FLT3-ITD positive); details: Homo sapiens, 72 h; MV4-11; Calcein AM, three days after drug addition; read-out: EC50 values (μM) MV4-11
Text: as §1
as §2, with “They were maintained in RPMI-1640 supplemented with 10% fetal bovine serum, penicillin (100 U/ml) and streptomycin (100 μg/ml). Kasumi-1 (acute myeloid leukemia, KIT mutation Asn822Lys) cells were cultivated in RPMI-1640 supplemented with 15% fetal bovine serum, penicillin (100 U/ml) and streptomycin (100 μg/ml).” left out, “h.” for “h. After this incubation period, fluorescence of the live cells was measured at 485 nm/538 nm (ex/em) with a Fluoroskan Ascent microplate reader (Labsystems).”

[5] = tested on: MOLM-13 (acute myeloid leukemia, FLT3-ITD positive); details: Homo sapiens, 72 h; MOLM-13; Calcein AM, three days; read-out: EC50 values (μM) MOLM-13
Text: as §1
as §2, with “They were maintained in RPMI-1640 supplemented with 10% fetal bovine serum, penicillin (100 U/ml) and streptomycin (100 μg/ml). Kasumi-1 (acute myeloid leukemia, KIT mutation Asn822Lys) cells were cultivated in RPMI-1640 supplemented with 15% fetal bovine serum, penicillin (100 U/ml) and streptomycin (100 μg/ml).” left out, “h.” for “h. After this incubation period, fluorescence of the live cells was measured at 485 nm/538 nm (ex/em) with a Fluoroskan Ascent microplate reader (Labsystems).”

K562 = details: Homo sapiens, 72 h; K562; Calcein AM, three days; read-out: EC50 values (μM) K562
Text: as §1
as §2, with “They were maintained in RPMI-1640 supplemented with 10% fetal bovine serum, penicillin (100 U/ml) and streptomycin (100 μg/ml). Kasumi-1 (acute myeloid leukemia, KIT mutation Asn822Lys) cells were cultivated in RPMI-1640 supplemented with 15% fetal bovine serum, penicillin (100 U/ml) and streptomycin (100 μg/ml).” left out, “h.” for “h. After this incubation period, fluorescence of the live cells was measured at 485 nm/538 nm (ex/em) with a Fluoroskan Ascent microplate reader (Labsystems).”

[6] = tested on: THP-1 (acute myeloid leukemia, wt FLT3); details: Homo sapiens, 72 h; THP-1; Calcein AM, three days; read-out: EC50 values (μM) THP-1
Text: as §1
as §2, with “They were maintained in RPMI-1640 supplemented with 10% fetal bovine serum, penicillin (100 U/ml) and streptomycin (100 μg/ml). Kasumi-1 (acute myeloid leukemia, KIT mutation Asn822Lys) cells were cultivated in RPMI-1640 supplemented with 15% fetal bovine serum, penicillin (100 U/ml) and streptomycin (100 μg/ml).” left out, “h.” for “h. After this incubation period, fluorescence of the live cells was measured at 485 nm/538 nm (ex/em) with a Fluoroskan Ascent microplate reader (Labsystems).”

CCN1CC2(C1)CN(Cc1ccc(Nc3nc(NC4CCC(O)CC4)nc4c3ncn4C3CCCC3)cc1)C2 (stereo not drawn) [Compound 8]
EC50 (HL60): 1.42 µM | EC50 [1]: 0.636 µM | EC50 [2]: 1.35 µM | EC50 (MCF-7): 0.22 µM | EC50 [3]: 0.049 µM | EC50 [4]: 0.042 µM | EC50 [5]: 0.056 µM | EC50 (K562): 0.391 µM | EC50 [6]: 2.1 µM
